# Earlier results as cited in patent publication US7354906B2, “Composition of anti-HIV drugs and anti-cortisol compounds and method for decreasing the side effects of anti-HIV drugs in a human” (Samaritan Pharmaceuticals, Inc., priority 1999, dated 2008).
# Legend:
# [1] = AZT recipients
# [2] = 50 mg per day for 6 months, age advanced humans
# [3] = human, 20 mg/kg/day, four weeks, no increase in caloric intake
# [4] = hydrochloride salt
structure (smiles),measurement,setting,value
"Cc1cn([C@H]2C[C@H](N=[N+]=[N-])[C@@H](CO)O2)c(=O)[nH]c1=O [AZT, 3′-azido-3′-deoxythymidine]",recipients who develop anemia,[1],24%
"C[C@]12CC[C@H](O)CC1=CC[C@@H]1[C@@H]2CC[C@]2(C)C(=O)CC[C@@H]12 [DHEA, Dehydroepiandrosterone]",safety of DHEA dosages,dosages as high as 1.6 gm/day,safe and without side effects
same,mean serum total cholesterol levels,"men, 1600 mg/day for 28 days",fall
same,mean percent body fat decrease,"men, 1600 mg/day for 28 days, no change in weight",31%
same,bioavailable IGF-1,[2],induced an increase
"CC(C)Oc1ccc2c(=O)c(-c3ccccc3)coc2c1 [Ipriflavone, 7-isoproxy-isoflavone]",increase in body weight,[3],about 5 pounds
"CCN(CC)CCOC(=O)c1ccc(N)cc1.Cl [Procaine hydrochloride, 2-diethylaminoethyl p-aminobenzoate hydrochloride]",solubility,[4],"soluble in water and alcohol, but much less soluble in organic solvents"
